This is an account of results in patent publication US20250339426A1, “GCN2 MODULATOR FOR TREATING CANCER” (HIBERCELL, INC., priority 2022, published 2025).

For assay [1], the system named is upstream regulators of differentially expressed genes in DLD-1 tumors. The assay is described as follows: RNAseq analysis of DLD-1 tumors. The assay is classed as in vivo, mice. How it is done:
(§1) DLD-1 (human colorectal cancer cells): Female 6-8 weeks old BALB/c nude mice were inoculated subcutaneously on the right flank with DLD-1 tumor cells (5×10^6) in 0.1 ml of RPMI1640 medium without serum for tumor development. The treatments were started when the mean tumor size reached approximately 195 mm^3 at Day 7 post inoculation and continued until end of study by twice daily oral gavage dosing of HC-7366 at listed doses (vehicle, 0.3 mg/kg HC-7366, 1 mg/kg HC-7366, 3 mg/kg HC-7366, 10 mg/kg HC-7366, or 30 mg/kg HC-7366, FIG. 10). For the time course study, tumors were harvested at Days 4, 7 and 14. Tumors were then used for IHC and RNAseq experiments (see Example 21).
DLD-1 tumor bearing mice were treated with HC-7366 at 0.3, 1, 3, 10 and 30 mg/kg twice a day for 14 days. Tumors were harvested for RNAseq analysis at Day 4, Day 7 and Day 14 (FIG. 128).

Assay [2] relates to LNCaP (human prostate cancer cells). The assay is described as follows: In vivo tumor growth inhibition, LNCaP xenograft. Further details: species or system NOD SCID mice. As to conditions: ≥3 mg/kg twice daily oral. How it is done: LNCaP (human prostate cancer cells): Male 6-8 weeks old NOD SCID mice were inoculated subcutaneously on the right flank with LNCaP tumor cells (1×10^7) in 0.1 ml with Matrigel (1:1) in RPMI1640 with 10% fetal bovine serum (FBS) for tumor development. The treatments were started when the mean tumor size reached approximately 207 mm^3 at Day 14 post inoculation and continued until end of study by twice daily oral gavage dosing of HC-7366 at listed doses (vehicle, 0.3 mg/kg HC-7366, 1 mg/kg HC-7366, 3 mg/kg HC-7366, 10 mg/kg HC-7366, or 30 mg/kg HC-7366 twice daily, FIG. 14).
(§2) [formula] • 2.2.2 Tumor Measurements: The measurement of tumor size was conducted three times weekly with a caliper and recorded. The tumor volume (mm^3) was estimated using the formula: TV=a×b^2/2, where “a” and “b” is long and short diameters of a tumor, respectively. Tumor volume was calculated using the formula [tumor volume (mm^3)=π/6×length×width^2).
(§3) Regression was calculated using the formula=100×ΔT/T initial, if ΔT<0. Animals with 0 mm^3 tumor volume (no measurable tumor) for three consecutive measurements were considered as complete responders and animals with 50% tumor regressions were partial responders.

The test system of assay [3] is DLD-1 (human colorectal cancer cells). The assay is described as follows: In vivo tumor growth inhibition, DLD-1 xenograft. On the set-up: species or system BALB/c nude mice. As to conditions: for TGI %: combination studies (Examples 9, 11). The protocol: as §1, §2, §3
The effect of DC101 in combination with HC-7366 in DLD-1 tumor-bearing mice was evaluated using protocols analogous to those described in Example 6. Mice were treated with 3 or 30 mg/kg HC-7366, twice daily by oral gavage. DC101 was administered at 20 mg/kg twice weekly and with twice daily dosing via intraperitoneal injection.
The effect of 5-fluorouracil in combination with HC-7366 in DLD-1 tumor-bearing mice was evaluated using protocols analogous to those described in Example 6. Mice were treated with 3 or 30 mg/kg HC-7366, twice daily by oral gavage. 5-fluorouracil was administered at 75 mg/kg once a week, twice daily via intravenous injection.

The test system of the next assay is MOLM-16 cells. The assay is described as follows: CTG viability assay, MOLM-16 sgControl and sgGCN2 cells. Particulars: 24 or 48 hr. The format is cell-based, human. How it is done: MOLM-16 cells were obtained from DSMZ (#ACC 555) and were cultured in RPMI 1640 (Gibco, #11875119) with 20% FBS (Invitrogen, #10099141C) at 37° C. and 5% CO2. MOLM-16 GCN2 CRISPR knockout cells (sgGCN2) were generated and compared to control cells (sgControl). For viability experiments, cells were plated in 384-well cell culture plates and incubated overnight. Compounds were diluted in 8 concentrations by 3-fold dilution in 384pp-plate using TECAN EVO200 to a final concentration ranging from […]. The plates were incubated for 24 or 48 hr and viability was assessed by adding CellTiter-Glo® 2.0 Assay according to the manufacturer's protocol (Promega, G9243) to each well. The plates were then incubated at RT for 30 min. The luminescent signals were read by Envision (PerkinElmer) plate reader and analyzed by Prism.

Assay [4] has as its system human AML cells of model CTG-2229. As to the kind of experiment: AML PDX in vivo study, flow cytometry of blood, spleen, bone marrow. Further details: species or system NCG mice. As to conditions: 1 mg/kg PO/BID×28, all tissues. How it is done: Sub-lethally irradiated NCG mice were inoculated with 2×10^6 human AML cells of model CTG-2229. Mice were monitored post AML inoculation to assess human AML engraftment using huCD45/muCD45/huCD33/huCD3 antibodies and BD TruCount™ beads. When individual animals had ≥20% live huCD45 cells in the bone marrow, they were randomized to treatment cohorts. For the efficacy study, animals were administered (n=13/group) with vehicle control, HC-7366 at 1 mg/kg, 10 mg/kg or 30 mg/kg PO/BID×28, or Venetoclax at 100 mg/kg PO/QD×28. Terminal blood, spleen, and bone marrow samples were collected for flow cytometry (FIG. 87). Tolerability was assessed by body weight loss, lethality, and clinical signs of adverse treatment-related side effects. Body weights were measured twice weekly.
(In general: Flow cytometry measures light scatter and fluorescence of single cells or particles in a stream.)

For `CNC(=O)c1ncn2cc(-c3c(F)ccc(NS(=O)(=O)c4cc(Cl)cnc4OC)c3F)ncc12` [HC-7366, 6-(3-((5-chloro-2-methoxypyridine)-3-sulfonamido)-2,6-difluorophenyl)-N-methylimidazo[1,5-a]pyrazine-1-carboxamide], in assay [1] (0.3-30 mg/kg twice a day), the “HIF1α, SMAD4 and E2F1 signature” value was “reduction”. Moreover, the “ATF4 (upstream regulator of differentially expressed genes)” value in assay [1] (all doses (0.3-30 mg/kg twice a day)) is recorded as “significantly induced”. In addition, the tumor growth inhibition in assay [2] was 61-65%; in assay [3] (1 mg/kg and 3 mg/kg twice daily oral) it was roughly 78%. Besides, the TGI % in assay [3] (HC-7366 3 mg/kg twice daily oral) was roughly 65%; in assay [3] (HC-7366 30 mg/kg twice daily oral) it was roughly 21%. Moreover, in the assay on MOLM-16 cells (GCN2 CRISPR knockout cells), the viability response result is listed as “reversed”. The viability result in the assay on MOLM-16 cells (GCN2 wild-type (sgControl), lower concentrations, U-shaped manner) is recorded as “potently reduced viability”. Also, the “myeloid restricted precursor (CD34+CD33+) and mature myeloid cells (CD34−CD33+)” value in assay [4] is “significantly decreased”.
